From patent publication US4039550A, “Lower-alkyl (5-substituted-2-pyridyl)carbamodithioates” (Sterling Drug Inc., priority 1976, dated 1977)

Columns and labels:
bacteria = details: Foye et al., J. Am. Pharm. Assoc. 47, 556-558 (1958); cited from earlier work
H. nana = test: Anthelmintic screening in mice against H. nana (tapeworm), four-day medication; format: in vivo, Hymenolepis nana in Swiss mice; details: 200 mg./kg./day p.o. for four days
Experimental: In tests against the tapeworm, H. nana, Swiss mice weighing approximately 20 grams were infected with approximately 12,000 ova of H. nana administered in 10% gelatin via stomach tube. The test compounds, made up in 10% gelatin, were administered via stomach tube in equally divided doses daily for four consecutive days beginning twelve days after infection. Four days after the final medication, the animals were sacrificed and examined for the presence of worms. Efficacy was judged by the percent of mice cleared compared to non-medicated control mice.
(§1) Data obtained in anthelmintic screening tests against the helminth infections, N. dubius (a), H. nana (b) and S. obvelata (c), are given in the table below. Results are expressed in terms of the percent of animals cleared at a standard dose of 200 mg./kg./day (p.o.) for four days; as percent of animals cleared at a single dose (S.D.) of 25 mg./kg.; or as an ED50 on single dose administration (ED50) against N. dubius.

N. dubius [1] = test: Anthelmintic single-dose test in mice against N. dubius (S.D. and ED50); format: in vivo, Nematospiroides dubius in Swiss mice; details: for ED50: Heligmosomoides polygyrus, against N. dubius, single oral dose, dose necessary to remove 50% of the worm burden, read-out: ED50 on single dose administration
Experimental: (§2) Anthelmintic activity was determined in mice against one species of roundworm (Nematospiroides dubius), one species of pinworm (Syphacia obvelata) and one species of tapeworm (Hymenolepis nana). The various test procedures used are described as follows: Swiss mice weighing approximately 20 grams were infected with approximately 20 larvae of N. dubius which were administered in 10% gelatin via stomach tube. For screening purposes, compounds, made up in 10% galatin, were administered via stomach tube in equally divided daily doses for four consecutive days beginning fourteen days after infection. Four days after the final medication, the animals were sacrificed and examined for the presence of worms. Efficacy against N. dubius was judged on the basis of percent worm reduction compared to control non-medicated mice. In addition, for the purpose of evaluation, the compounds were administered orally to a series of animals at graded doses, each animal receiving a single dose, and the results against N. dubius expressed in terms of an Effective Dose50 (ED50), the ED50 representing the dose necessary to remove 50% of the worm burden.
as §1

S. obvelata = test: Anthelmintic screening in mice against S. obvelata (pinworm), four-day medication; format: in vivo, Syphacia obvelata in Swiss mice; details: 200 mg./kg./day p.o. for four days
Excerpt: The same test procedures described above were used to assess the effectiveness of the compounds against S. obvelata, a naturally occurring pinworm infection in Swiss mice. Efficacy was judged by the percent of mice cleared of the infection compared to non-medicated control mice.
as §1

N. dubius [2] = test: Anthelmintic screening in mice against N. dubius (roundworm), four-day medication; format: in vivo, Nematospiroides dubius in Swiss mice; details: 200 mg./kg./day p.o. for four days
Experimental: as §2, §1

Structure (SMILES)	anti-bacterial activity (bacteria)	% Cleared/200 mg./kg. (b) (H. nana) [%]	ED50 (N. dubius [1]) [mg/kg]	% Cleared/200 mg./kg. (c) (S. obvelata) [%]	% Cleared/200 mg./kg. (a) (N. dubius [2]) [%]	S.D. (percent of animals cleared at a single dose) (N. dubius [1]; single dose of 25 mg./kg., mice) [%]
CCSC(=S)Nc1ccccn1 [Ethyl (2-pyridyl)-carbamodithioate]	active as an anti-bacterial agent	–	–	–	–	–
CSC(=S)Nc1ccc(Cl)cn1 [Example 1, methyl (5-chloro-2-pyridyl)carbamodithioate]	–	80	2 ± 0.917	40	100	–
CSC(=S)Nc1ccc(C)cn1 [Example 2, methyl (5-methyl-2-pyridyl)carbamodithioate]	–	30	7.75 ± 3.54	30	100	–
CSC(=S)Nc1ccc(N(C)C)cn1 [Example 3, methyl (5-dimethylamino-2-pyridyl)carbamodithioate]	–	0	–	0	100	64.5
